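These data come from cells grown in 96-well plates and exposed to compound for 48 hours at five concentrations. Abbreviation: GI50, concentration required for 50% inhibition of growth. TGI denotes the concentration required for complete inhibition of growth.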
How the values were obtained:
Experiment in all cases: inhibition of tumour cell growth, NCI panel, 48 h
[1] = system: MDA-N
[2] = system: COLO 205 colon
[3] = system: M14 melanoma
[4] = system: SNB-19 CNS
[5] = system: MCF7 breast
[6] = system: OVCAR-4 ovarian
[7] = system: MALME-3M melanoma
[8] = system: UACC-257 melanoma
[9] = system: HCC-2998 colon
[10] = system: SF-539 CNS

SMILES | TGI [1] [µM] | TGI [2] [µM] | TGI [3] [µM] | TGI [4] [µM] | TGI [5] [µM] | TGI [6] [µM] | TGI [7] [µM] | TGI [8] [µM] | TGI [9] [µM] | TGI [10] [µM] | GI50 [3] [µM] | GI50 [7] [µM] | GI50 [8] [µM] | GI50 [9] [µM] | GI50 [10] [µM] | GI50 [2] [µM] | GI50 [4] [µM] | GI50 [5] [µM] | GI50 [6] [µM]
C/C(=N\NC(=S)N1CCC(N2CCCCC2)CC1)c1ccccn1 | 5.9 | 9.95 | 3.8 | 11.3 | 10.6 | 16.7 | > 100 | 8.93 | > 24.3 | 8.36 |  |  |  |  |  |  |  |  | 
CCOC(=O)/C=C/c1c(C)[nH]c(=O)[nH]c1=O |  | > 250 |  | > 250 | > 250 | > 158 | > 250 | > 250 | > 250 | > 250 |  |  |  |  |  |  |  |  | 
CCOC(=O)NC(Nc1cc(Cl)ccc1OC)(C(F)(F)F)C(F)(F)F | > 100 |  | > 100 | > 100 | > 100 |  | > 100 | > 100 | > 100 | > 100 |  |  |  |  |  |  |  |  | 
CN=C(Nc1ccc(OC)c2ccccc12)SC | > 10 | > 10 | > 10 | > 10 | > 10 | > 10 | > 10 | > 10 | > 10 | > 10 |  |  |  |  |  |  |  |  | 
O=c1[nH]c(SCc2cccc([N+](=O)[O-])c2)nc2nc[nH]c12 | > 100 | > 100 | > 100 | > 100 | > 100 | > 100 | > 100 | > 100 |  |  |  |  |  |  |  |  |  |  | 
O=c1nc2ccc([N+](=O)[O-])cc2[n+]([O-])[nH]1 | > 100 | > 100 | > 100 | > 100 | > 100 | > 100 | > 100 | > 100 | > 100 | > 100 |  |  |  |  |  |  |  |  | 
c1ccc2c(c1)c1ccccc1n2Cn1c2ccccc2c2ccccc21 | > 100 |  | > 100 | > 100 |  | > 100 | > 100 | > 100 |  |  |  |  |  |  |  |  |  |  | 
c1cc2c3c(c1)c1cc4c(cc1c[n+]3CC2)OCO4 |  | 19.9 |  | 13.5 | 30.3 | 47.7 | 3.88 | 13.5 | 10.4 | 15.4 |  |  |  |  |  |  |  |  | 
COc1cc(-c2ccc(N=Nc3ccc4c(S(=O)(=O)O)cc(S(=O)(=O)O)c(N)c4c3O)c(OC)c2)ccc1N=Nc1ccc2c(S(=O)(=O)O)cc(S(=O)(=O)O)c(N)c2c1O |  | > 100 |  | > 100 | > 100 | > 100 | > 100 | > 100 | > 100 | > 100 |  |  |  |  |  |  |  |  | 
COc1cccc2c1C(=O)c1c(O)c3c(c(O)c1C2=O)C[C@@](O)(C(=O)COC(=O)c1ccccc1)C[C@@H]3OC1CC(N)C(O)C(C)O1 (some centres undefined) |  |  | 1.35 |  |  |  | 0.652 | 1.27 | 2.32 | 1.13 | 0.21 | 0.136 | 0.262 | 0.421 | 0.254 |  |  |  | 
C/C(=N\NC(=O)c1ccc(Cl)cc1)c1nc2ncccc2[nH]1 | > 100 | 96.3 | > 100 | > 100 | > 100 | 47.9 | 48.9 | 79.9 | > 100 | 40.3 |  |  |  |  |  |  |  |  | 
O=C(/C=C1\Sc2ccccc2N=C1CC(=O)c1ccccc1)c1ccccc1 | > 100 | 22.3 | 36.4 | > 100 | > 100 | 40.3 | 23 | > 100 | 26.2 | 34.7 |  |  |  |  |  |  |  |  | 
O=c1oc(-c2ccc(O)cc2)cc2cc(O)ccc12 |  | 50.5 | 55.5 | 93.6 | 52.9 | > 100 | 72.3 | > 100 | 65.9 | > 100 |  |  |  |  |  |  |  |  | 
O=C(NN1C(=O)C(Cl)C1c1cccc([N+](=O)[O-])c1)c1ccccc1O (centres undefined) |  | > 100 | > 100 | > 100 |  | > 100 | > 100 | > 100 |  | > 100 |  |  |  |  |  |  |  |  | 
COc1ccc(C2=[S+]C(c3ccccc3)(c3ccccc3)c3ccccc32)cc1 | 54.5 | 31.3 | 31.4 | > 100 | > 100 | 62.2 | 46.1 | 46.9 | > 100 | 40.4 |  |  |  |  |  |  |  |  | 
O=C(N/N=C\c1cccc2ccccc12)Nc1ccccc1 | > 100 | > 100 | > 100 | > 100 | > 100 | > 100 | > 100 | > 100 |  |  |  |  |  |  |  |  |  |  | 
c1ccc2c(c1)NCc1cc3ccccc3nc1O2 |  | > 100 |  | > 100 | > 100 | > 100 | > 100 | > 100 | > 100 | > 100 |  |  |  |  |  |  |  |  | 
N#[N+]c1c([O-])c2ccccc2c2ccccc12 | > 100 | > 100 | > 100 | > 100 | > 100 | > 100 |  | > 100 | > 100 | 91 |  |  |  |  |  |  |  |  | 
Cc1cn(-c2cccc(NC(=O)c3ccc(C)c(Nc4nccc(-c5cccnc5)n4)c3)c2)cn1 |  | 3.65 | 5.47 | > 100 | 4.74 | 3.11 | 2.99 | 3 | 8.02 | 2.97 | 2.08 | 1.51 | 1.59 | 3.05 | 1.45 | 2.09 | 2.4 | 1.94 | 1.71
Cc1ccc(Cl)cc1N=NC(=O)NNc1cc(Cl)ccc1C | > 100 | 41 | 34.7 | 43.2 | 80.7 |  | 64.6 |  | > 100 |  |  |  |  |  |  |  |  |  | 
Cc1cc(N/N=C/c2nc(-c3ccc(Cl)cc3)oc2C)c2cc(Br)ccc2n1 |  | 10.6 | 4.55 | 17.7 |  | 3.69 | 4.23 | 15 | 12.5 | 3.69 | 2.02 | 1.91 | 3.49 | 3.58 | 1.9 | 2.86 | 4.13 |  | 1.87
O=C1C(CO)=C[C@H](O)[C@H]2O[C@@H]12 |  | 209 |  | > 625 | 271 | 317 | 319 | 387 | > 508 | > 562 |  |  |  |  |  |  |  |  | 
O=C1CCC[C@H]2O[C@@H](COC(=O)c3ccccc3)C[C@H]2O1 | > 100 | > 100 | > 100 | > 100 | > 100 | > 100 |  | > 100 |  | > 100 |  |  |  |  |  |  |  |  | 
